# In patent US9873680B2 (Gilead Sciences, Inc., priority 2014, dated 2018):
# Read-outs that look alike come from different tables or passages of the source.
# What was measured:
# [1] = Test B: Cytotoxicity Assay; assay type: cell-based; conditions: human, uninfected MT-4 cells, CellTiter-Glo
# Description: Test B: Cytotoxicity Assay Compound cytotoxicity and the corresponding CC50 values was determined using the same protocol as described in the antiviral assay (Test A) except that uninfected cells were used.
# [2] = test system: HIV-IIIb; assay: Test A: Antiviral Assay in MT4 Cells; assay type: cell-based, HIV-1; conditions: read-out: % inhibition at 0.2 μM (percent inhibition of virus-induced cell killing)
# Summary of the method: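 Readout was CellTiter-Glo luminescence after 10 min room-temperature lysis, taken 5 days after plating at 37 °C. The 2000 MT-4 cells per well, mixed 1 h beforehand with HIV-IIIb (m.o.i. 0.003), went straight onto the diluted compound.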
# [3] = Human immunodeficiency virus 1, MT4, 120 h, 0.2 μM drug concentration, MT-4 cells infected with HIV-IIIb, 5 days, values normalized to 100%, average over time
Structure (SMILES),CC50 at 5 days [1],"inhibition at 0.2 µM ([2]; Human immunodeficiency virus 1, IIIB, MT4, 120 h)","inhibition at 0.2 µM [2, 3]"
Cn1nc(NS(C)(=O)=O)c2c(Cl)ccc(-c3ccc(C#CC4(C)OCCn5ccnc54)nc3[C@H](Cc3cc(F)cc(F)c3)NC(=O)Cn3nc(C(F)(F)F)c4c3C(F)(F)[C@@H]3C[C@H]43)c21 (stereo partly drawn) [Compound 81E],> 57 µM,87%,
"Cn1nc(NS(C)(=O)=O)c2c(Cl)ccc(-c3ccc(C#CC(C)(C)c4ncc[nH]4)nc3[C@H](Cc3cc(F)cc(F)c3)NC(=O)Cn3nc(C(F)F)c4c3C(F)(F)[C@@H]3C[C@H]43)c21 [Compound 91F, N—((S)-1-(6-(3-(1H-imidazol-2-yl)-3-methylbut-1-yn-1-yl)-3-(4-chloro-1-methyl-3-(methylsulfonamido)-1H-indazol-7-yl)pyridin-2-yl)-2-(3,5-difluorophenyl)ethyl)-2-((3bS,4aR)-3-(difluoromethyl)-5,5-difluoro-3b,4,4a,5-tetrahydro-1H-cyclopropa[3,4]cyclopenta[1,2-c]pyrazol-1-yl)acetamide]",14.6 µM,,98%
"Cn1nc(NS(C)(=O)=O)c2c(Cl)ccc(-c3ccc(C#CC4(O)CCC4)nc3[C@H](Cc3cc(F)cc(F)c3)NC(=O)Cn3nc(C(F)(F)F)c4c3C(F)(F)[C@@H]3C[C@H]43)c21 [Compound 61C, N—((S)-1-(3-(4-chloro-1-methyl-3-(methylsulfonamido)-1H-indazol-7-yl)-6-((1-hydroxycyclobutyl)ethynyl)pyridin-2-yl)-2-(3,5-difluorophenyl)ethyl)-2-((3bS,4aR)-5,5-difluoro-3-(trifluoromethyl)-3b,4,4a,5-tetrahydro-1H-cyclopropa[3,4]cyclopenta[1,2-c]pyrazol-1-yl)acetamide]",7.89 µM,,93%
"Cn1nc(NS(C)(=O)=O)c2cccc(-c3ccc(C#CC4CCCCN4)nc3[C@H](Cc3cc(F)cc(F)c3)NC(=O)Cn3nc(C(F)(F)F)c4c3C(F)(F)[C@@H]3C[C@H]43)c21 (stereo partly drawn) [Compound 36B, 2-((3bS,4aR)-5,5-difluoro-3-(trifluoromethyl)-3b,4,4a,5-tetrahydro-1H-cyclopropa[3,4]cyclopenta[1,2-c]pyrazol-1-yl)-N-((1S)-2-(3,5-difluorophenyl)-1-(3-(1-methyl-3-(methylsulfonamido)-1H-indazol-7-yl)-6-(piperidin-2-ylethynyl)pyridin-2-yl)ethyl)acetamide]",6.57 µM,,83%
"Cn1nc(NS(C)(=O)=O)c2c(Cl)ccc(-c3ccc(C#CC(C)(O)C4CC4)nc3[C@H](Cc3cc(F)cc(F)c3)NC(=O)Cn3nc(C(F)(F)F)c4c3C(F)(F)[C@@H]3C[C@H]43)c21 (stereo partly drawn) [Compound 59, N-((1S)-1-(3-(4-chloro-1-methyl-3-(methylsulfonamido)-1H-indazol-7-yl)-6-(3-cyclopropyl-3-hydroxybut-1-yn-1-yl)pyridin-2-yl)-2-(3,5-difluorophenyl)ethyl)-2-((3bS,4aR)-5,5-difluoro-3-(trifluoromethyl)-3b,4,4a,5-tetrahydro-1H-cyclopropa[3,4]cyclopenta[1,2-c]pyrazol-1-yl)acetamide]",10.2 µM,,95%
"Cn1nc(NS(C)(=O)=O)c2cccc(-c3ccc(C#CCN4CCOCC4)nc3[C@H](Cc3cc(F)cc(F)c3)NC(=O)Cn3nc(C(F)(F)F)c4c3C(F)(F)[C@@H]3C[C@H]43)c21 [Compound 34, 2-((3bS,4aR)-5,5-difluoro-3-(trifluoromethyl)-3b,4,4a,5-tetrahydro-1H-cyclopropa[3,4]cyclopenta[1,2-c]pyrazol-1-yl)-N—((S)-2-(3,5-difluorophenyl)-1-(3-(1-methyl-3-(methylsulfonamido)-1H-indazol-7-yl)-6-(3-morpholinoprop-1-yn-1-yl)pyridin-2-yl)ethyl)acetamide]",10.2 µM,,87%
